From US5300498A, “6-piperazinyl-1H-pyrazolo[3,4-b]pyridine-3-carboxylic acids, esters, amides and related compounds” (Hoechst-Roussel Pharmaceuticals Incorporated, priority 1993, dated 1994)
Where a name gives a salt, the structure may show the parent alone.

Test system: serotonin (5HT) uptake
Assay: [^3 H]-Serotonin Uptake in Rat Whole Brain and Hypothalamic Synaptosomes
Type: biochemical, rat (male CR Wistar)
Details: 50 nM [^3 H]-5HT, 37° C., 5 minutes, read-out: Inhibition of Serotonin Uptake, IC50
Experimental: [^3 H]-Serotonin Uptake in Rat Whole Brain and Hypothalamic Synaptosomes
A. Animals: Male CR Wistar rats (100-125 g).
1. Krebs-Henseleit Bicarbonate Buffer, pH 7.4 (KHBB):
Prior to use add to 200 ml, per assay:
Make a 4 liter batch, containing the following salts:
3. Sucrose solution: 0.32M sucrose containing 5 mM HEPES and 0.1 mM EDTA; pH to 7.3 using Tris base.
4. A 0.1 mM stock solution of serotonin creatinine SO4 is made up in 0.01N HCl. This is used to dilute the specific activity of the radiolabeled 5HT.
The final desired concentration of [^3 H]-5HT in the assay is 50 nM. The dilution factor is 0.8.
6. For most assays, a 0.5 mM stock solution of the test compound is made up initially in either 10 μl of glacial acetic acid, 100 μl DMSO or 10 μl of the recrystallization solvent, to which is added approximately 10 ml of distilled water. Compounds are initially screened in duplicate at 3 concentrations (10^-8, 10^-7 and 10^-6 M) made up in water.
43, 1114 (1984) and Dunkley, P. R., Jarvie, R. E., Heath, J. W., Kidd, G. J., Rostas, J. A. P. Brain Research 372, 115 (1986). Male Wistar rats are decapitated and the brain rapidly removed. […] The following procedures are performed on ice. Homogenization should be done with 4-5 up and down strokes at medium speeds (setting 4.5 to 5) to minimize synaptosome lysis.
Tubes are carefully removed, and the top layer and the top part of the middle (red) layer are discarded using a pasteur pipette. […] This is carefully removed, placed in a centrifuge tube, diluted with KHBB and spun at 21,000 g (13,000 rpm, Sorvall SS-34 rotor).
200 μl of the tissue suspension are added to each of 24 tubes (at a time) containing the 20 μl of vehicle or drug on ice. Three minutes later, 800 μl of KHBB containing [^3 H]-5HT are added, and the tubes are vortexed. […] Uptake is terminated by filtration through GF/B filter strips using a Brandel cell harvester (filter strips are presoaked in ice cold filtration buffer). Tubes are washed once with 5 ml of ice cold filtration buffer.

| SMILES | IC50 |
| --- | --- |
| NC(=O)c1n[nH]c2nc(N3CCNCC3)ccc12 [6-(1-Piperazinyl)-1H-pyrazolo[3,4-b]pyridine-3-carboxamide hydrochloride hydrate] | 7690 nM |
| CN1CCN(c2ccc3c(C#N)n[nH]c3n2)CC1 [6-(4-Methyl-1-piperazinyl)-1H-pyrazolo[3,4-b]pyridine-3-carbonitrile] | 764 nM |
| CN1CCN(c2ccc3cnn(C)c3n2)CC1 [1-Methyl-6-(4-methyl-1-piperazinyl)-1H-pyrazolo[3,4-b]pyridine] | 3430 nM |
| N#Cc1n[nH]c2nc(N3CCNCC3)ccc12 [6-(1-Piperazinyl)-1H-pyrazolo[3,4-b]pyridine-3-carbonitrile] | 696 nM |
| N#Cc1n[nH]c2nc(N3CCCNCC3)ccc12 [6-(Hexahydro-1H-1,4-diazepin-1-yl)-1H-pyrazolo[3,4-b]pyridine-3-carbonitril] | 349 nM |
| CN1CCN(c2ccc3cn[nH]c3n2)CC1 [6-(4-Methyl-1-piperazinyl)-1H-pyrazolo[3,4-b]pyridine] | 8260 nM |
